From patent publication US20070014748A1, “Urea compounds that promote desquamation” (L'OREAL, priority 2005, published 2007)

Key:
[1] = tested on: acid proteases of the SC (stratum corneum); assay: Activating potential on acid proteases of the stratum corneum (Enzchek Bodipyfl-casein fluorimetric assay); format: biochemical; details: for acid protease activity compared with the control / duration of the activating effect on acid proteases: 1 and 2 M; for acid protease activity compared with the control: 0.1M acetic buffer pH 5.0, SC enzymatic extract; for duration of the activating effect on acid proteases: readings up to 24 h
Description: (§1) Three properties were therefore studied: • The prodesquamating power, by the test of degradation of corneodesmosin in a controlled environment chamber with formulated products containing 5% active agent. […] P According to one of the aspects of the invention, the said compound of formula (I) has a corneodesmosin degrading effect which it stimulates.
The property of activating certain acid proteases of the SC (stratum corneum) is evaluated. The measurement of this activity is carried out by fluorimetric assay with the aid of the Enzchek kit (Molecular Probes). This protocol uses a Bodipyfl-casein substrate which, when hydrolysed, releases fluorescence. The fluorescence released is directly proportional to the protease activity. It is read directly on a 96-well plate in a spectrofluorimeter at 750V at an excitation of 485 nm and an emission of 535 nm.
The results obtained with N-(2-hydroxyethyl)urea (compound according to the invention) are compared with those for urea.
The molecules are prepared at 0, 1, 2 and 4 M in 0.1M acetic buffer; pH 5.0. An enzymatic extract is prepared from acetone powders. 2 ml of PBS buffer +0.1% Triton X100 are brought into contact for 1 h in crushed ice with 200 mg of stratum corneum acetone powders. The mixture is then ground in a potter device and then centrifuged for 10 min at 15 000 g at 4° C. The supernatant is collected. The Enzchek substrate diluted 1/200 is incorporated into each solution containing the molecules. The assays are repeated three times.
The reaction mixture is prepared directly in a white plate. 10 μl of enzymatic extract are added to 200 μl of solution containing the substrate at 0, 1, 2 or 4M. The readings are carried out at t0, 1 2 h, t 16 h and t 24 h.

corneodesmosin = assay: Degradation of corneodesmosin in a controlled environment chamber (varnished strippings, immunoblot); format: biochemical; details: for percentages of residual corneodesmosin relative to the control: 5% active agent in base Arlacel/Myrj, 37° C., 70% relative humidity, 5 days, mean of 2 experiments, the lower the percentage, the higher the degradation
Description: as §1
The molecules are formulated in a neutral base Arlacel/Myrj. The products are in contact with varnished strippings under defined temperature, humidity and incubation time conditions. The corneodesmosin is assayed by immunodetection after incubation. It is studied on an immunoblot after electrophoretic separation and transfer onto a membrane. After specific labelling with the antibody G3619, it is visualized by chemiluminescence.
The Hydrovance® product, which is a mixture comprising N-(2-hydroxyethyl)urea marketed by the company National Starch, is compared with urea and with a control.
Rectangles of 3×3.5 cm^2 are cut out in varnished strippings made on the bottom of dry skin legs. They are treated with 42 mg of product (4 mg/cm^2) each. Controls and assays are carried out in parallel. The assays are incubated at 37° C. and 70% relative humidity for 5 days. The controls are kept for 5 days at −20° C. For each of the samples, acetone powders are made and weighed. The proteins are extracted with 100 μl of complete Laemmli buffer. They are assayed according to the Bradford method. The protein level of each sample is adjusted and will allow direct comparison of the various samples.
The proteins are separated by SDS-Page electrophoresis on 12% acrylamide gel. After transferring the proteins onto a PVDF membrane, the immunodetection is carried out with the anti-corneodesmosin antibody G3619 (Guy Serre) at 1/12 500 according to a conventional Western-blot technique. The visualization is performed by chemiluminescence. The bands detected by fluorSmax (Biorad) are quantified with the software quantity-one. […]
The results are expressed as percentages of residual corneodesmosin relative to the control −80° C. […]

[2] = tested on: keratins and proteins of the SC; assay: "Keratolytic" potential: solubilization of keratins and proteins of the stratum corneum (electrophoresis gel); details: 2M in water +2% CHAPS; room temperature; 12.5% acrylamide gel, silver nitrate staining
Description: as §1
Urea is known for its denaturing activity on keratolytic proteins.
30 mg of acetone powders of stratum corneum of the bottom of the legs of volunteers are prepared and brought into contact with 3 ml of water +2% CHAPS (zwitterionic detergent) for 10 min at room temperature. The mixture is then ground in a potter device and centrifuged for 10 min at 15 000 g. The supernatant is removed. This method makes it possible to remove the very soluble keratins and proteins which would interfere with the interpretation of the results. The pellet is taken up in 300 μl of water+CHAPS and 20 μl are distributed into 10 Eppendorf tubes.
Each molecule to be studied is prepared at 2M in water +2% CHAPS.
200 μl of solution are mixed with 20 μl of extract of acetone powders. The assays are carried out in duplicate. A control with no reagent is performed in parallel. The reaction mixtures are incubated for 10 min at room temperature, they are ground in a potter device and then incubated for 50 min at room temperature. They are centrifuged for 10 min at 15 000 g. […]

SMILES	acid protease activity compared with the control [1]	duration of the activating effect on acid proteases [1]	acid protease activity ([1]; 4M, regardless of the time studied)	degradation of a protein substrate by the acid proteases of the SC ([1]; concentration of 0.5 to 2M, in particular 1M)	percentages of residual corneodesmosin relative to the control (corneodesmosin)	prodesquamating effect (corneodesmosin degradation) compared with urea (corneodesmosin; 5% in base Arlacel/Myrj)	solubilization of SC proteins, gel band pattern compared with urea [2]
NC(=O)NCCO [Hydrovance, N-(2-hydroxyethyl)urea]	large increase in activity	long-lasting	marked decrease in activity	durably stimulates	23%	slightly higher effect than urea	distinguishable from urea by the appearance of low MW bands
NC(N)=O [urea]	slightly activating effect	up to two hours after the start of incubation			30%		
